35 compounds from patent US8946270B2, “Amido-pyridyl ether compounds and compositions and their use against parasites” (Merial Limited, priority 2011, dated 2015) can be followed below.

In data set [1] the test system is Rhipicephalus sanguineus (Brown Dog Tick). The data set can be described thus: whole plant or invertebrate. The conditions noted are these: for mortality at 200 ppm: Rhipicephalus sanguineus, read-out: Contact SP Rhicicep PCT Mortality (%); for Contact SP Rhicicep PCT Mortality (%): 200 ppm. From the text: A solution of the test compound was used to coat the inner wall of glass vials and to treat two filter papers. Once dried, one filter paper was placed in the cap of the vial and the other in the bottom of the vial. Each treated vial was infested with 10 adult Rhipicephalus sanguineus (Brown Dog Tick). […]

In another data set the test system is Haematobia irritans. The data set is described as follows: whole plant or invertebrate. The conditions noted are these: 5 μg/cm^2; for mortality at 5 µg/cm2: Haematobia irritans, read-out: Contact SP Horn Fly PCT Mortality (%). Here is the method:
(§1) A solution of the test compound was used to treat a filter paper contained within a Petri dish and the filter paper was allowed to evaporate to dryness. A small piece of absorbent cotton moistened with 10% sucrose and ten adult flies (Haematobia irritans or Stomoxys calcitrans) were added to each dish. Dishes were capped and held at room temperature. Assessments were performed at 4 and 24 hours after infestation in comparison with untreated controls.

The next data set concerns Stomoxys calcitrans. The data set is described as follows: whole plant or invertebrate. The conditions noted are these: 5 μg/cm^2; for mortality at 5 µg/cm2: Stomoxys calcitrans, read-out: Contact SP Stable Fly PCT Mortality. Here is the method:
as §1

A further data set deals with Ctenocephalides felis. The data set can be described thus: whole plant or invertebrate. The conditions noted are these: 72 hr; for mortality at 200 ppm: Ctenocephalides felis, read-out: Assay: Minilnge Organism: C. felis Test Parameter: PCT Mortal; for Assay: Minilnge Organism: C. felis Test Parameter: PCT Mortal: Dose: 200 ppm.
The test system of data set [2] is Haemonchus contortus larvae. The data set is described as follows: Activity against H. contortus, larval development L1 to L3 (LDA). The conditions noted are these: 5 ppm; 4 days. Here is the method:
Twenty L1 Haemonchus contortus larvae were added to wells of a microtitre plate containing a nutrient medium and the test compound in DMSO. The microtitre plate was then held at 27° C. where the L1 larvae were allowed to develop. […] Larvae exposed to DMSO and no test compound served as controls

Like-named read-outs stand apart in the source and are kept apart here.

On to `CC(C)CNC(=O)c1ccc(COc2cccc(C(F)(F)F)c2)cn1` [Compound 5], for which the results for the mortality at 200 ppm in data set [1] (timepoint 4 hrs) and in data set [1] (timepoint 24 hrs) were 50% and 80%, respectively. Moreover, the mortality at 5 µg/cm2 turned out to be 100% in the data set with Haematobia irritans (timepoint 4 hrs), 100% in the data set on Haematobia irritans (timepoint 24 hrs), 70% in the data set on Stomoxys calcitrans (4 hrs) and 90% in the data set on Stomoxys calcitrans (24 hrs).

In the case of `CC(C)CNC(=O)c1ccc(COc2ccc(OC(F)(F)F)cc2)cn1` [Compound 10], the mortality at 200 ppm in data set [1] (timepoint 4 hrs) was 0%; in data set [1] (timepoint 24 hrs), 100%. The mortality at 5 µg/cm2 in the data set with Haematobia irritans (timepoint 4 hrs) and with Haematobia irritans (timepoint 24 hrs) was 90% throughout.

Consider `CC(C)CNC(=O)c1ccc(CCOc2cccc(OC(F)(F)F)c2)cn1` [Compound 12], for which the mortality at 5 µg/cm2 in the data set on Haematobia irritans (timepoint 4 hrs) was found to be 80%; with Haematobia irritans (timepoint 24 hrs), 100%; with Stomoxys calcitrans (4 hrs), 50%; in the data set with Stomoxys calcitrans (24 hrs), 90%.

As for `O=C(NCC1CCOCC1)c1ccc(COc2ccc(OC(F)(F)F)cc2)cn1` [Compound 24], the mortality at 200 ppm (in data set [1] (timepoint 4 hrs); in data set [1] (timepoint 24 hrs); in the data set on Ctenocephalides felis) was 0% throughout. Also, the mortality at 5 µg/cm2 in the data set on Haematobia irritans (timepoint 4 hrs) was determined as 50%; in the data set on Haematobia irritans (timepoint 24 hrs) it was 70%.

As for `O=C(NCC1CC1)c1ccc(COc2ccc(OC(F)(F)F)cc2)cn1` [Compound 33], the mortality at 200 ppm in data set [1] (timepoint 4 hrs) and in data set [1] (timepoint 24 hrs) was 100% in each case. The mortality at 5 µg/cm2 in the data set with Haematobia irritans (timepoint 4 hrs) is 100%; in the data set on Haematobia irritans (timepoint 24 hrs), 100%; in the data set with Stomoxys calcitrans (4 hrs), 80%; with Stomoxys calcitrans (24 hrs), 80%.

Turning to `COC(CNC(=O)c1ccc(COc2cccc(OC(F)(F)F)c2)cn1)OC` [Compound 44], the mortality at 200 ppm in data set [1] (timepoint 4 hrs) and in data set [1] (timepoint 24 hrs) was 100% in each case. Moreover, the mortality at 5 µg/cm2 with Haematobia irritans (timepoint 4 hrs) and in the data set on Haematobia irritans (timepoint 24 hrs) was 80% in each case.

In the case of `O=C(NCC1CC1)c1ccc(COc2cccc(OC(F)(F)F)c2)cn1` [Compound 52], the “Contact SP Horn Fly PCT Mortality (%)” value with Haematobia irritans (timepoint 4 hrs) and in the data set on Haematobia irritans (timepoint 24 hrs) was 80% in each case. Further, the results for the “Contact SP Stable Fly PCT Mortality” value with Stomoxys calcitrans (4 hrs) and in the data set with Stomoxys calcitrans (24 hrs) were 60% and 80%, respectively.

`CC(C)CNC(=O)c1ccc(COc2cccc(OC(F)(F)F)c2)cn1` [Compound 54]: the results for the mortality at 200 ppm in data set [1] (timepoint 4 hrs) and in data set [1] (timepoint 24 hrs) were 0% and 100%, respectively. The mortality at 5 µg/cm2 in the data set with Haematobia irritans (timepoint 4 hrs) and in the data set on Haematobia irritans (timepoint 24 hrs) was 100% each time.

For the compound `Cc1cccc(OCc2ccc(C(=O)NCC(C)C)nc2)c1` [Compound 63], the “Contact SP Rhicicep PCT Mortality (%)” value in data set [1] (timepoint 4 hrs) and in data set [1] (timepoint 24 hrs) was 100% in each case. The “Contact SP Horn Fly PCT Mortality (%)” value with Haematobia irritans (timepoint 4 hrs) and with Haematobia irritans (timepoint 24 hrs) was 100% in each case. Further, the “Contact SP Stable Fly PCT Mortality” value with Stomoxys calcitrans (4 hrs) and with Stomoxys calcitrans (24 hrs) was 80% each time.

For the compound `CCc1cccc(OCc2ccc(C(=O)NCC(OC)OC)nc2)c1` [Compound 65], the mortality at 200 ppm in data set [1] (timepoint 4 hrs) turned out to be 80%; in data set [1] (timepoint 24 hrs), 100%. Further, the results for the mortality at 5 µg/cm2 with Stomoxys calcitrans (4 hrs) and with Stomoxys calcitrans (24 hrs) were 50% and 60%, respectively.

Take `C=C(C)CNC(=O)c1ccc(COc2cccc(CC)c2)cn1` [Compound 76]: the mortality at 200 ppm in data set [1] (timepoint 4 hrs) was 80%; in data set [1] (timepoint 24 hrs) it was 100%. In addition, the mortality at 5 µg/cm2 in the data set on Haematobia irritans (timepoint 4 hrs) and in the data set with Haematobia irritans (timepoint 24 hrs) was 0% in each case.

On to `CCc1cccc(OCc2ccc(C(=O)NCC(C)C)nc2)c1` [Compound 77], for which the mortality at 200 ppm in data set [1] (timepoint 4 hrs) and in data set [1] (timepoint 24 hrs) was 100% throughout. The mortality at 5 µg/cm2 in the data set on Haematobia irritans (timepoint 4 hrs) is 100%; in the data set with Haematobia irritans (timepoint 24 hrs), 100%; with Stomoxys calcitrans (4 hrs), 60%; with Stomoxys calcitrans (24 hrs), 80%.

For the compound `COC(CNC(=O)c1ccc(COc2cc(F)cc(Br)c2)cn1)OC` [Compound 107], the mortality at 200 ppm in data set [1] (timepoint 4 hrs) amounted to 0%; in data set [1] (timepoint 24 hrs) it was 70%; in the data set with Ctenocephalides felis, 90%. Besides, the mortality at 5 µg/cm2 with Haematobia irritans (timepoint 4 hrs) and in the data set with Haematobia irritans (timepoint 24 hrs) was 0% throughout.

For the compound `N#CCCNC(=O)c1ccc(COc2cc(F)cc(Br)c2)cn1` [Compound 108], the mortality at 200 ppm in data set [1] (timepoint 4 hrs) and in data set [1] (timepoint 24 hrs) was 70% each time. Also, the mortality at 5 µg/cm2 in the data set with Haematobia irritans (timepoint 4 hrs) was determined as 100%; in the data set with Haematobia irritans (timepoint 24 hrs), 100%; with Stomoxys calcitrans (4 hrs), 0%; with Stomoxys calcitrans (24 hrs), 0%.

For the compound `CSCCNC(=O)c1ccc(COc2cc(F)cc(Br)c2)cn1` [Compound 115], the “Contact SP Horn Fly PCT Mortality (%)” value with Haematobia irritans (timepoint 4 hrs) was 0%; in the data set on Haematobia irritans (timepoint 24 hrs), 60%.

On to `O=C(NCC1CC1)c1ccc(COc2cc(F)cc(Br)c2)cn1` [Compound 119], for which the “Contact SP Horn Fly PCT Mortality (%)” value is 80% in the data set with Haematobia irritans (timepoint 4 hrs) and 100% in the data set with Haematobia irritans (timepoint 24 hrs). For the same compound, the “Contact SP Stable Fly PCT Mortality” value is recorded as 60% in the data set with Stomoxys calcitrans (4 hrs) and 70% in the data set on Stomoxys calcitrans (24 hrs).

Turning to `O=C(NCCc1ccccn1)c1ccc(COc2cc(F)cc(Br)c2)cn1` [Compound 121], the “Contact SP Horn Fly PCT Mortality (%)” value with Haematobia irritans (timepoint 4 hrs) and in the data set with Haematobia irritans (timepoint 24 hrs) was 80% each time.

Regarding `O=C(NC1CCC1)c1ccc(COc2cc(F)cc(Br)c2)cn1` [Compound 122], the “Contact SP Rhicicep PCT Mortality (%)” value was determined as 0% in data set [1] (timepoint 4 hrs) and 80% in data set [1] (timepoint 24 hrs). Also, the “Contact SP Horn Fly PCT Mortality (%)” value in the data set with Haematobia irritans (timepoint 4 hrs) and with Haematobia irritans (timepoint 24 hrs) was 0% in each case.

For `CN(C)CC(C)(C)CNC(=O)c1ccc(COc2cc(F)cc(Br)c2)cn1` [Compound 124], the mortality at 200 ppm in data set [1] (timepoint 4 hrs) and in data set [1] (timepoint 24 hrs) was 70% throughout. In addition, the mortality at 5 µg/cm2 with Haematobia irritans (timepoint 4 hrs) and with Haematobia irritans (timepoint 24 hrs) was 100% each time.

In the case of `CC(C)CNC(=O)c1ccc(COc2cc(F)cc(Br)c2)cn1` [Compound 125], the mortality at 5 µg/cm2 with Haematobia irritans (timepoint 4 hrs) and in the data set with Haematobia irritans (timepoint 24 hrs) was 100% each time.

Take `CCCCNC(=O)c1ccc(COc2cc(F)cc(Br)c2)cn1` [Compound 127]: the figures for the mortality at 200 ppm in data set [1] (timepoint 4 hrs) and in data set [1] (timepoint 24 hrs) were 90% and 100%, respectively. The mortality at 5 µg/cm2 in the data set on Haematobia irritans (timepoint 4 hrs) and in the data set with Haematobia irritans (timepoint 24 hrs) was 70% each time.

For the compound `CC(C)CCNC(=O)c1ccc(COc2cc(F)cc(Br)c2)cn1` [Compound 129], the mortality at 5 µg/cm2 in the data set on Haematobia irritans (timepoint 4 hrs) and in the data set with Haematobia irritans (timepoint 24 hrs) was 40% each time.

Take `CC(C)CNC(=O)c1ccc(COCc2cccc(OC(F)(F)F)c2)cn1` [Compound 132]: the “Contact SP Horn Fly PCT Mortality (%)” value with Haematobia irritans (timepoint 4 hrs) and in the data set with Haematobia irritans (timepoint 24 hrs) was 100% in each case.

Turning to `CC(C)CNC(=O)c1ccc(COCc2ccc(OC(F)(F)F)cc2)cn1` [Compound 133], the mortality at 5 µg/cm2 with Haematobia irritans (timepoint 4 hrs) and in the data set on Haematobia irritans (timepoint 24 hrs) was 80% each time.

Consider `CC(C)CNC(=O)c1ccc(OCc2ccc(OC(F)(F)F)cc2)cn1` [Compound 136], for which the “LDA SP H. cont. PCT Mot M” value in data set [2] is 89.2655%.

Take `O=C(NCC1CC1)c1ccc(COc2cccc(-c3cccc(F)c3)c2)cn1` [Compound 176]: the “Contact SP Rhicicep PCT Mortality (%)” value in data set [1] (timepoint 4 hrs) was 90%; in data set [1] (timepoint 24 hrs), 100%. The “Assay: Minilnge Organism: C. felis Test Parameter: PCT Mortal” value (shortened to “Assay: Minilnge Organism”) in the data set on Ctenocephalides felis was 70%.

Regarding `CCCNC(=O)c1ccc(COc2cccc(-c3cccc(F)c3)c2)cn1` [Compound 177], the “Contact SP Rhicicep PCT Mortality (%)” value in data set [1] (timepoint 4 hrs) is given as 80%; in data set [1] (timepoint 24 hrs), 90%. The “Assay: Minilnge Organism” value with Ctenocephalides felis is 40%.

Consider `C=C(C)CNC(=O)c1ccc(COc2cccc(-c3cccc(F)c3)c2)cn1` [Compound 179], for which the “Contact SP Rhicicep PCT Mortality (%)” value in data set [1] (timepoint 4 hrs) and in data set [1] (timepoint 24 hrs) was 100% throughout. Moreover, the “Assay: Minilnge Organism” value in the data set on Ctenocephalides felis is 70%.

As for `COC(CNC(=O)c1ccc(COc2cccc(-c3ccccc3)c2)cn1)OC` [Compound 185], the “Assay: Minilnge Organism” value in the data set on Ctenocephalides felis was determined as 90%.

Take `C=C(C)CNC(=O)c1ccc(COc2cccc(-c3ccccc3)c2)cn1` [Compound 197]: the “Assay: Minilnge Organism” value in the data set on Ctenocephalides felis turned out to be 90%.

Consider `CC(C)CNC(=O)c1ccc(COc2cccc(-c3ccccc3)c2)cn1` [Compound 198], for which the “Contact SP Rhicicep PCT Mortality (%)” value in data set [1] (timepoint 4 hrs) and in data set [1] (timepoint 24 hrs) was 100% in each case. Further, in the data set on Ctenocephalides felis, the “Assay: Minilnge Organism” value is recorded as 90%.

For the compound `CC(C)CNC(=O)c1ccc(CCOc2ccc(C(F)(F)F)cc2)cn1` [Compound 206], the “LDA SP H. cont. PCT Mot M” value in data set [2] was found to be 100%. The mortality at 200 ppm in data set [1] (timepoint 4 hrs) and in data set [1] (timepoint 24 hrs) was 100% each time.

Consider `O=C(NCC1CC1)c1ccc(CCOc2cccc(C(F)(F)F)c2)cn1` [Compound 208], for which the “Contact SP Horn Fly PCT Mortality (%)” value in the data set on Haematobia irritans (timepoint 4 hrs) and with Haematobia irritans (timepoint 24 hrs) was 100% throughout.

On to `CC(C)CNC(=O)c1ccc(CCOc2ccc(F)c(F)c2)cn1` [Compound 224], for which the “LDA SP H. cont. PCT Mot M” value in data set [2] amounted to 98%.

Consider `O=C(NCC1CC1)c1ccc(CCOc2cccc(OC(F)(F)F)c2)cn1` [Compound 243], for which the mortality at 200 ppm in data set [1] (timepoint 4 hrs) is 100%; in data set [1] (timepoint 24 hrs), 100%; in the data set with Ctenocephalides felis, 80%.
